Assay results taken from paper PMC11859184, “Synthesis and Evaluation of ^68Ga- and ^177Lu-Labeled [diF-Pro^14]Bombesin(6−14) Analogs for Detection and Radioligand Therapy of Gastrin-Releasing Peptide Receptor-Expressing Cancer” (Pharmaceuticals, 2025).
Where two headings read alike, the source gives them in different places.

Legend:
GRPR = molecular target: T1, GRPR (Homo sapiens, UniProt P30550); test: Fluorometric intracellular calcium release assay using PC-3 cells; type: cell-based; conditions: 50 nM ligand, n = 4
T1 construct: host or cells: PC-3 cells
T1 sequence (P30550 whole entry): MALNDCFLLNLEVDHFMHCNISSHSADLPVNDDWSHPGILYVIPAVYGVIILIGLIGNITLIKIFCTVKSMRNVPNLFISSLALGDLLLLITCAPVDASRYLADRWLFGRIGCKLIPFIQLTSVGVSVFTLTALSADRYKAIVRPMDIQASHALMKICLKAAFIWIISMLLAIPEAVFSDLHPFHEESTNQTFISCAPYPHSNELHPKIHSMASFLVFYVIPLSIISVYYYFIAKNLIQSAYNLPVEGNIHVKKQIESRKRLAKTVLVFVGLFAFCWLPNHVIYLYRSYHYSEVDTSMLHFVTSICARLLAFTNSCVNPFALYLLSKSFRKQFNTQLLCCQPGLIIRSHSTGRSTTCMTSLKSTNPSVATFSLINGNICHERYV
Procedure: The agonist/antagonist characteristics of LW02060, Ga-LW02060, Lu-LW02060, LW02080, Ga-LW02080, and Lu-LW02080 were determined following published procedures. The PC-3 cells were obtained from ATCC (via Cedarlane, Burlington, ON, Canada). A 96-well clear bottom black plate was seeded with 5 × 10^4 PC-3 cells in 100 μL growth media per well 24 h before the assay. The loading buffer (100 μL/well) containing a calcium-sensitive dye (FLIPR Calcium 6 assay kit from Molecular Devices, San Jose, CA, USA) was added into the 96-well plate, followed by 1 h incubation at 37 °C. The plate was then transferred into a FlexStation 3 microplate reader (Molecular Devices, San Jose, CA, USA). LW02060 (50 nM), Ga-LW02060 (50 nM), Lu-LW02060 (50 nM), LW02080 (50 nM), Ga-LW02080 (50 nM), Lu-LW02080 (50 nM), [D-Phe^6,Leu-NHEt^13,des-Met^14]Bombesin(6–14) (50 nM, antagonist control), bombesin (50 nM, agonist control), adenosine triphosphate (ATP, 50 nM, positive control), or DPBS (blank control) was added, and the fluorescent signals were measured for 2 min (λEx = 485 nm; λEm = 525 nm; n = 4). The relative fluorescent units (RFU = max − min) were calculated to determine the agonistic/antagonistic characteristics of LW02060, Ga-LW02060, Lu-LW02060, LW02080, Ga-LW02080, and Lu-LW02080, respectively.

[1] = Ex vivo biodistribution of 68Ga-labeled tracers in PC-3 tumor-bearing mice; conditions: mouse, 1 h pi; for tissue to tissue ratio at 1 h: male, NOD.Cg-Rag1^tm1Mom Il2rg^tm1Wjl/SzJ (NRG), iv, total radioactivity; for tissue uptake at 1 h: intravenous
Procedure: PET/CT imaging and biodistribution studies were conducted using male NOD.Cg-Rag1^tm1Mom Il2rg^tm1Wjl/SzJ (NRG) mice following previously published procedures. The studies were carried out in compliance with the guidelines established by the Canadian Council on Animal Care and approved by Animal Ethics Committee of the University of British Columbia (protocol number A20-0113, approved on 30 September 2022). The mice were anaesthetized and subcutaneously implanted with 5 × 10^6 PC-3 cells (100 µL; 1:1 PBS/Matrigel) behind the left shoulder. PET/CT imaging and biodistribution studies were performed once the tumors reached a diameter of 5–8 mm, typically after approximately 4 weeks of growth.
For ex vivo biodistribution studies, the mice were injected with the ^68Ga-labeled tracer (2–4 MBq) via a lateral caudal tail vein. For blocking [^68Ga]Ga-LW02060, the mice were co-injected with 100 μg of [D-Phe^6,Leu-NHEt^13,des-Met^14]Bombesin(6–14). For blocking [^68Ga]Ga-LW02080, the mice were co-injected with 100 μg of its nonradioactive standard Ga-LW02080. At 1 h pi, the mice were euthanized by CO2 inhalation. Blood and organs/tissues of interest were collected, weighed, and counted using a gamma counter.

`Nc1ncnc2c1ncn2[C@@H]1O[C@H](COP(=O)(O)OP(=O)(O)OP(=O)(O)O)[C@@H](O)[C@H]1O` [ATP, adenosine triphosphate, reference compound] showed an intracellular calcium release (GRPR) of 286 ± 9.44 RFU.
For `CC(C)C[C@H](NC(=O)[C@H](Cc1cnc[nH]1)N(C)C(=O)CNC(=O)[C@@H](NC(=O)[C@H](C)NC(=O)[C@H](Cc1c[nH]c2ccccc12)NC(=O)[C@H](CCC(N)=O)NC(=O)[C@@H](Cc1ccccc1)NC(=O)CN1CCC(NC(=O)CN2CCN(CC(=O)O)CCN(CC(=O)O)CCN(CC(=O)O)CC2)CC1)C(C)(C)C)C(=O)N1CC(F)(F)C[C@H]1C(N)=O` [[^68Ga]Ga-LW02060, metal not drawn], the tissue to tissue ratio at 1 h ([1]; tumor/blood, blocked (100 µg blocking agent co-injected), read-out: Tumor/blood uptake ratio) was 3.72 ± 0.74, the tissue to tissue ratio at 1 h ([1]; tumor/blood, n = 4, read-out: Tumor/blood uptake ratio) was 29.1 ± 3.62 and the tissue to tissue ratio at 1 h ([1]; tumor/bone, blocked (100 µg blocking agent co-injected), read-out: Tumor/bone uptake ratio) was 22.3 ± 8.24. It also gave a tissue to tissue ratio at 1 h ([1]; tumor/bone, n = 4, read-out: Tumor/bone uptake ratio) of 179 ± 46.9, a tissue to tissue ratio at 1 h ([1]; tumor/kidney, blocked (100 µg blocking agent co-injected), read-out: Tumor/kidney uptake ratio) of 0.54 ± 0.03 and a tissue to tissue ratio at 1 h ([1]; tumor/kidney, n = 4, read-out: Tumor/kidney uptake ratio) of 4.86 ± 0.76. It also gave a tissue to tissue ratio at 1 h ([1]; tumor/muscle, blocked (100 µg blocking agent co-injected), read-out: Tumor/muscle uptake ratio) of 17.7 ± 3.85, a tissue to tissue ratio at 1 h ([1]; tumor/muscle, n = 4, read-out: Tumor/muscle uptake ratio) of 141 ± 19 and a tissue to tissue ratio at 1 h ([1]; tumor/pancreas, blocked (100 µg blocking agent co-injected), read-out: Tumor/pancreas uptake ratio) of 2.87 ± 0.84. The tissue to tissue ratio at 1 h ([1]; tumor/pancreas, n = 4, read-out: Tumor/pancreas uptake ratio) was 5.52 ± 0.78, the tissue uptake at 1 h ([1]; PC-3 tumor, 100 ug, blocked (100 µg blocking agent co-injected), read-out: PC-3 tumor uptake) was 6.11 ± 0.42 %ID/g and the tissue uptake at 1 h ([1]; PC-3 tumor, n = 4, read-out: PC-3 tumor uptake) was 16.8 ± 2.7 %ID/g. It also gave a tissue uptake at 1 h ([1]; adrenal glands, 100 ug, blocked (100 µg blocking agent co-injected), read-out: Adrenal glands uptake) of 0.67 ± 0.03 %ID/g, a tissue uptake at 1 h ([1]; adrenal glands, n = 4, read-out: Adrenal glands uptake) of 0.66 ± 0.16 %ID/g and a tissue uptake at 1 h ([1]; blood, 100 ug, blocked (100 µg blocking agent co-injected), read-out: Blood uptake) of 1.71 ± 0.44 %ID/g. It also gave a tissue uptake at 1 h ([1]; blood, n = 4, read-out: Blood uptake) of 0.54 ± 0.03 %ID/g, a tissue uptake at 1 h ([1]; bone, 100 ug, blocked (100 µg blocking agent co-injected), read-out: Bone uptake) of 0.29 ± 0.07 %ID/g and a tissue uptake at 1 h ([1]; bone, n = 4, read-out: Bone uptake) of 0.1 ± 0.04 %ID/g. The tissue uptake at 1 h ([1]; brain, 100 ug, blocked (100 µg blocking agent co-injected), read-out: Brain uptake) was 0.05 ± 0.01 %ID/g, the tissue uptake at 1 h ([1]; brain, n = 4, read-out: Brain uptake) was 0.02 ± 0.01 %ID/g and the tissue uptake at 1 h ([1]; fat, 100 ug, blocked (100 µg blocking agent co-injected), read-out: Fat uptake) was 0.27 ± 0.1 %ID/g. The tissue uptake at 1 h ([1]; fat, n = 4, read-out: Fat uptake) was 0.05 ± 0.02 %ID/g, the tissue uptake at 1 h ([1]; heart, 100 ug, blocked (100 µg blocking agent co-injected), read-out: Heart uptake) was 0.52 ± 0.14 %ID/g and the tissue uptake at 1 h ([1]; heart, n = 4, read-out: Heart uptake) was 0.2 ± 0.05 %ID/g. The tissue uptake at 1 h ([1]; kidneys, 100 ug, blocked (100 µg blocking agent co-injected), read-out: Kidneys uptake) was 11.3 ± 0.97 %ID/g, the tissue uptake at 1 h ([1]; kidneys, n = 4, read-out: Kidneys uptake) was 3.58 ± 1.14 %ID/g and the tissue uptake at 1 h ([1]; large intestine, 100 ug, blocked (100 µg blocking agent co-injected), read-out: Large intestine uptake) was 0.54 ± 0.13 %ID/g. It also gave a tissue uptake at 1 h ([1]; large intestine, n = 4, read-out: Large intestine uptake) of 0.61 ± 0.1 %ID/g, a tissue uptake at 1 h ([1]; liver, 100 ug, blocked (100 µg blocking agent co-injected), read-out: Liver uptake) of 1.11 ± 0.43 %ID/g and a tissue uptake at 1 h ([1]; liver, n = 4, read-out: Liver uptake) of 0.37 ± 0.08 %ID/g. For the same compound, the tissue uptake at 1 h ([1]; lungs, 100 ug, blocked (100 µg blocking agent co-injected), read-out: Lungs uptake) was 1.52 ± 0.39 %ID/g, the tissue uptake at 1 h ([1]; lungs, n = 4, read-out: Lungs uptake) was 0.61 ± 0.15 %ID/g and the tissue uptake at 1 h ([1]; muscle, 100 ug, blocked (100 µg blocking agent co-injected), read-out: Muscle uptake) was 0.35 ± 0.08 %ID/g. It also gave a tissue uptake at 1 h ([1]; muscle, n = 4, read-out: Muscle uptake) of 0.12 ± 0.03 %ID/g, a tissue uptake at 1 h ([1]; pancreas, 100 ug, blocked (100 µg blocking agent co-injected), read-out: Pancreas uptake) of 2.25 ± 0.59 %ID/g and a tissue uptake at 1 h ([1]; pancreas, n = 4, read-out: Pancreas uptake) of 3.12 ± 0.89 %ID/g. The tissue uptake at 1 h ([1]; small intestine, 100 ug, blocked (100 µg blocking agent co-injected), read-out: Small intestine uptake) was 0.72 ± 0.02 %ID/g, the tissue uptake at 1 h ([1]; small intestine, n = 4, read-out: Small intestine uptake) was 0.96 ± 0.2 %ID/g and the tissue uptake at 1 h ([1]; spleen, 100 ug, blocked (100 µg blocking agent co-injected), read-out: Spleen uptake) was 0.53 ± 0.15 %ID/g. It also gave a tissue uptake at 1 h ([1]; spleen, n = 4, read-out: Spleen uptake) of 0.24 ± 0.1 %ID/g, a tissue uptake at 1 h ([1]; stomach, 100 ug, blocked (100 µg blocking agent co-injected), read-out: Stomach uptake) of 0.38 ± 0.06 %ID/g and a tissue uptake at 1 h ([1]; stomach, n = 4, read-out: Stomach uptake) of 0.77 ± 0.29 %ID/g. For the same compound, the tissue uptake at 1 h ([1]; testes, 100 ug, blocked (100 µg blocking agent co-injected), read-out: Testes uptake) was 0.76 ± 0.29 %ID/g and the tissue uptake at 1 h ([1]; testes, n = 4, read-out: Testes uptake) was 0.2 ± 0.06 %ID/g.
